In paper PMC9863562, “Design, Synthesis, and Biological Evaluation of 2-Mercaptobenzoxazole Derivatives as Potential Multi-Kinase Inhibitors” (Pharmaceuticals, 2023):

Assays:
[1] = system: HepG2, MCF-7, MDA-MB-231 and HeLa cell lines; assay: MTT cytotoxicity assay, panel of four cell lines; format: cell-based; details: Homo sapiens, range over HepG2, MCF-7, MDA-MB-231, HeLa, read-out: IC50 values, range over the tested cell lines
Text: (§1) The in vitro cytotoxicity for the final target compounds, 4(a–d), 5(a–f), and 6(a–b), was preliminarily evaluated via the MTT colorimetric assay against a panel of four human cell lines, namely, the hepatocellular carcinoma (HepG2), mammary gland (MCF-7), breast cancer (MDA-MB-231) and epithelioid cervix carcinoma (HeLa).
(§2) The cytotoxicity of the target hybrids was examined by an MTT assay against HepG2, HeLa, MCF-7, and MDA-MB-231. At first, the RPMI-1640 medium with 10% fetal bovine serum was used to cultivate the cell lines. Then, antibiotics (penicillin (100 units/mL) and streptomycin (100 µg/mL)) were added in a 37 °C incubator in 5% CO2. The cell lines were seeded in a 96-well plate at a density of 1.0 × 10^4 cells/well at 37 °C under 5% CO2 for 48 h. After incubation, the cells were treated with various concentrations of the synthesized compounds and incubated for an additional 24 h. Following the drug treatment, 20 µL of 5 mg/mL MTT solution was added and incubated for 4 h. To dissolve the purple formazan that had formed, 100 µL dimethyl sulfoxide (DMSO) was added to each well. At a wavelength of 570 nm, the colorimetric assay was recorded and measured, using a plate reader BioTek EXL 800 (Agilent Technologies, Inc., Santa Clara, CA, USA). The percentage of relative cell viability was counted using the following formula (A570 of handled specimens/A570 of the unhandled specimen), multiplied by 100. The results of the cytotoxicity value were presented as the median growth inhibitory concentration (IC50) of the reagents compared to the control.

[2] = system: MDA-MB-231 cells (breast cancer); assay: MTT cytotoxicity assay, MDA-MB-231; format: cell-based; details: Homo sapiens, 24 h treatment, read-out: In Vitro Cytotoxicity IC50 MDA-MB-231
Method: (§3) After incubation, the cells were treated with various concentrations of the synthesized compounds and incubated for an additional 24 h. Following the drug treatment, 20 µL of 5 mg/mL MTT solution was added and incubated for 4 h. To dissolve the purple formazan that had formed, 100 µL dimethyl sulfoxide (DMSO) was added to each well. […] The percentage of relative cell viability was counted using the following formula (A570 of handled specimens/A570 of the unhandled specimen), multiplied by 100.

[3] = target: T1, Human VEGFR-2 (Homo sapiens, UniProt P35968); assay: In vitro VEGFR-2 enzyme assay (ELISA kit); format: biochemical; details: read-out: IC50 VEGFR2
T1 construct: purchased
T1 sequence (P35968 20-1356): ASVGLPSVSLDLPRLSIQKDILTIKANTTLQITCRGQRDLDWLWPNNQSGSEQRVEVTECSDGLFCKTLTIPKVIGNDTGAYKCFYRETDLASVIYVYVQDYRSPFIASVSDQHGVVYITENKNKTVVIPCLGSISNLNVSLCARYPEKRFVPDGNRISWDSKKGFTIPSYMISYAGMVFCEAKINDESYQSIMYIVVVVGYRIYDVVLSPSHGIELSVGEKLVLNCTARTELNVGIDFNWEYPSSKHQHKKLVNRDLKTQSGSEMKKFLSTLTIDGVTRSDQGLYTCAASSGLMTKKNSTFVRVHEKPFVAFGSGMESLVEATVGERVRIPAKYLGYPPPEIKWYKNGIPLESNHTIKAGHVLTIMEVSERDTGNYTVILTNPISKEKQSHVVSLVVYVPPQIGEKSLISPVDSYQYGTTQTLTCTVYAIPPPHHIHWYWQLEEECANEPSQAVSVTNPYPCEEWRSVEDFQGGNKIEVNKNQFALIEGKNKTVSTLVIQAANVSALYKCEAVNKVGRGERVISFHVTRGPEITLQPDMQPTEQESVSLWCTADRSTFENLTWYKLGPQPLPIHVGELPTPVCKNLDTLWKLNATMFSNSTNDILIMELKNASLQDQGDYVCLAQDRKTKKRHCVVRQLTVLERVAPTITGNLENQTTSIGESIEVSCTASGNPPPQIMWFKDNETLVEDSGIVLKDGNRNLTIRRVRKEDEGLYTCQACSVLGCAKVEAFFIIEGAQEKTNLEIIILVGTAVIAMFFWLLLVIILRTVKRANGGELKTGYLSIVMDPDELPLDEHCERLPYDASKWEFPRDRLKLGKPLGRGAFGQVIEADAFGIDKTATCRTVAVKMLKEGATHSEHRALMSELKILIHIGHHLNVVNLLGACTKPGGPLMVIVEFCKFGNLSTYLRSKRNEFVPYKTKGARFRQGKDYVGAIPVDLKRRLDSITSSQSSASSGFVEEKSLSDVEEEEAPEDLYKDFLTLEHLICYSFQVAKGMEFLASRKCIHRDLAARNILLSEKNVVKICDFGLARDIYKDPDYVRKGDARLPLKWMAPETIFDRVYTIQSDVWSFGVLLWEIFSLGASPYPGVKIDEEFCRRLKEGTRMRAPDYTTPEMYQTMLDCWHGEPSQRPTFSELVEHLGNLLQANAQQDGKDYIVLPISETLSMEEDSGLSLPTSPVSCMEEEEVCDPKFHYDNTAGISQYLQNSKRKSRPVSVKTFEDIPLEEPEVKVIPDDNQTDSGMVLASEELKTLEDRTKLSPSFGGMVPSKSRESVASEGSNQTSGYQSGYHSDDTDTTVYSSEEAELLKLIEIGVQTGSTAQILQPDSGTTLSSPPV
Method: (§4) Compound 6b was biologically evaluated for its inhibitory effect against CDK2, EGFR, HER2, and VEGFR-2. Human CDK2, EGFR, HER2, and VEGFR-2 ELISA kits (Enzyme-Linked-Immunosorbent Serologic Assay) were used during this evaluation. At first, specified antibody proteins were added separately to a 96-well plate, then 0.1 mL of the standard solution or the evaluated molecule was added; these were then incubated for 2.5 h at RT. After rinsing, 100 μL of the ready-made biotin antibody protein was added, then incubated for one extra hour at room temperature and, finally, washed. Next, 100 μL of streptavidin solution was added, incubated at room temperature for 45 min, and then washed. Next, 100 μL of the TMB substrate reagent was added and incubated for 0.5 h at RT, followed by adding 50 μL of the stop solution. The absorbance of the ELISA plate was promptly measured at 450 nm using the ELISA plate reader. The standard curve that was generated had absorbances on the Y-axis and concentrations on the X-axis.

[4] = system: Bcl-2; assay: Apoptosis-related proteins in HepG2 cells (ELISA), Bcl-2; format: cell-based, human
Text: (§5) Compound 6b was selected to investigate the apoptotic markers against the liver cancer cell line (HepG2). […] Typically, Bax, Bcl-2, and caspases contribute to the regulation of apoptotic signaling. Acting as an apoptotic activator (Bax) or inhibitor (Bcl-2), the Bcl-2 family of proteins plays a significant role in apoptosis. The caspase family comprises cysteine proteases that are classified as either executioner—caspase-3, or as initiators—caspase-9 and caspase-8 [40]. […] Nevertheless, considerable downregulation of the anti-apoptotic gene, Bcl-2 (0.26 folds), was described, leading to an increased expression ratio of Bax/Bcl-2 (1→20.53). The Bax/Bcl-2 gene expression ratio can serve as an early predictor for cancer in patients and is a sensitive monitor of cancer progression. […]
(§6) The HepG2 cells were incubated in 96-well plates in triplicates and left for 24 h. […] The treated cells, along with control cells, were then incubated for another 24 h; then, caspases-3 and 9, BAX, and Bcl-2 levels were determined using ELISA assay kits; KHO1091 (Invitrogen^TM, Grand Island, NY, USA), EIA-4860 (DRU International, Inc., Mountainside, NJ, USA), EIA-4487 (DRU International INC., Mountainside, NJ, USA) and 99–0042 (Invitrogen^TM, Grand Island, NY, USA), respectively, according to their manufacturers’ procedures.

[5] = system: HepG2 cells (hepatocellular carcinoma); assay: MTT cytotoxicity assay, HepG2; format: cell-based; details: Homo sapiens, HepG2, 24 h, 24 h treatment, read-out: In Vitro Cytotoxicity IC50 HepG2
Text: as §1, §2

[6] = target: T2, Human EGFR (Homo sapiens, UniProt P00533); assay: In vitro EGFR enzyme assay (ELISA kit); format: biochemical
T2 construct: purchased
T2 sequence (P00533 25-1210): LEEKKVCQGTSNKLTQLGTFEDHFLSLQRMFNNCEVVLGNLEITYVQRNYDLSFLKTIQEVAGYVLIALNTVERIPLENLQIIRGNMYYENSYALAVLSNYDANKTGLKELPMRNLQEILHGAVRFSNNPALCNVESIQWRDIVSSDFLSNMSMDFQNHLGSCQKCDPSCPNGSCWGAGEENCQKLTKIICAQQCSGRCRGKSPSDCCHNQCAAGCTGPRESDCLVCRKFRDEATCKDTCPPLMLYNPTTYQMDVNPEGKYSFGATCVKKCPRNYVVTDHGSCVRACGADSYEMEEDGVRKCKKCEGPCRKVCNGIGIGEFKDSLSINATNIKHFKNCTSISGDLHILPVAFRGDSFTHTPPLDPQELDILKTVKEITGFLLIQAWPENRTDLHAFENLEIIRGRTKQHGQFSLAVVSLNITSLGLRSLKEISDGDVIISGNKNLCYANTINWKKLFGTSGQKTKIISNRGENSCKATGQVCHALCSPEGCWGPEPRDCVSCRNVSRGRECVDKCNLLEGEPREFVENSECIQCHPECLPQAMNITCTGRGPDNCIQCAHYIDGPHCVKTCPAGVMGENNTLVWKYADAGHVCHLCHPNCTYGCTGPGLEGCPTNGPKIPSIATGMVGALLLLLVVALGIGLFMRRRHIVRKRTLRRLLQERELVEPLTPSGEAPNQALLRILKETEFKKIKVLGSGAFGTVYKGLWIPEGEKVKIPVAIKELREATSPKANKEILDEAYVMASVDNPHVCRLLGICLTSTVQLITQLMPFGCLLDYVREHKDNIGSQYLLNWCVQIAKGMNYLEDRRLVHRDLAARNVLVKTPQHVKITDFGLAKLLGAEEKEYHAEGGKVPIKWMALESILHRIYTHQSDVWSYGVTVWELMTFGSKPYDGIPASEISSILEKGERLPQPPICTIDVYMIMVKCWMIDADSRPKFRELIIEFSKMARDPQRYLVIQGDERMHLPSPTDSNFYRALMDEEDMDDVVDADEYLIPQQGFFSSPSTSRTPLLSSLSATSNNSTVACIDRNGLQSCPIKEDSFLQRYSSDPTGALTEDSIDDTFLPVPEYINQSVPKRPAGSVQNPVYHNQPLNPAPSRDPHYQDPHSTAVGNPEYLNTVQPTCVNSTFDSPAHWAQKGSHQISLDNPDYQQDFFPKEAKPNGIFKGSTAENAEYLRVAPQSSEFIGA
Method: as §4, with “Human” for “Compound 6b was biologically evaluated for its inhibitory effect against CDK2, EGFR, HER2, and VEGFR-2. Human”, “reader.” for “reader. The standard curve that was generated had absorbances on the Y-axis and concentrations on the X-axis.”

[7] = system: HeLa cells (epithelioid cervix carcinoma); assay: MTT cytotoxicity assay, HeLa; format: cell-based; details: Homo sapiens, 24 h treatment, read-out: In Vitro Cytotoxicity IC50 Hela
Method: as §3

[8] = system: Caspase-3; assay: Apoptosis-related proteins in HepG2 cells (ELISA), Caspase-3; format: cell-based, human
Text: as §5, §6

[9] = target: T3, Human CDK2 (Homo sapiens, UniProt P24941); assay: In vitro CDK2 enzyme assay (ELISA kit); format: biochemical
T3 construct: purchased
Method: as §4, with “Human” for “Compound 6b was biologically evaluated for its inhibitory effect against CDK2, EGFR, HER2, and VEGFR-2. Human”, “reader.” for “reader. The standard curve that was generated had absorbances on the Y-axis and concentrations on the X-axis.”

IC50 [3]: 565 ± 25 nM
IC50 [6]: 279 ± 17 nM
IC50 [9]: 886 ± 46 nM
SMILES: O=C(CSc1nc2ccccc2o1)NN=Cc1ccc[nH]1 (mixture of isomers) [Compound 6b, (E/Z)-N′-((1H-pyrrol-2-yl)methylene)-2-(benzo[d]oxazol-2-ylthio)acetohydrazide]
IC50 [1]: 2.14 to 19.3 µM
IC50 [2]: 2140 ± 100 nM
Bcl-2 Expression ([4]; 24 h treatment, ELISA): 2.822 ± 0.21 pg/mL
Bcl-2 Fold ([4]; versus control HepG2 = 1): 0.26 fold
IC50 [5]: ~6.83 µM
IC50 [7]: 5.18 ± 0.5 µM
Caspase-3 Expression ([8]; 24 h treatment, ELISA): 467.6 ± 24 pg/mL
Caspase-3 Fold ([8]; versus control HepG2 = 1): 5.02 fold
